Laboratory results: patent US8067391B2, “ODCase inhibitors for the treatment of malaria” (University Health Network, priority 2005, dated 2011)
Read-outs that look alike come from different tables or passages of the source.

What was measured:
Plasmodium falciparum = assay: anti-malarial activity against Plasmodium falciparum; format: cell-based; settings: read-out: IC50 anti-malarial activity
Protocol: (§1) Assays comparing the antiplasmodial activities of the compounds of the invention were performed using the SYBR-Green method.^xlviii Briefly, the compounds were dissolved in DMSO to achieve a concentration of 10 mg/mL. Fifty microliters of RPMI-A were added to each well in a 96-well plate before 40 μL of RPMI-A and 10 μL of compound solution were added to the first well, the contents of the well were mixed, 50 μL were removed and added to the next well in the series and the process was repeated until the next-to-last well was reached. This produced a plate with a series of two-fold dilutions across it, except for the last well in the series, which contained RPMI-A alone. Fifty microliters of parasite culture (2% hematocrit, 2% parasitemia) were added to each well and the plates were then incubated at 37° C. in 95% N2, 3% CO2, and 2% O2 for 72 hrs.

Plasmodium vivax = assay: anti-malarial activity against Plasmodium vivax; format: cell-based; settings: range stated for the group of compounds
P. falciparum ItG = assay: antiplasmodial activity, SYBR-Green method, P. falciparum ItG isolate; format: cell-based; settings: Plasmodium falciparum, in vitro, FIG. 4, read-out: IC50 anti-plasmodial activity
Protocol: as §1
(§2) CHO cells (ATCC, Manassas, Va.) were grown in RPMI-1640 supplemented with 10% fetal calf serum (Sigma, St. Louis, Mo.), 25 mM HEPES and gentimicin (RPMI-10). Cells were seeded in 96 well plates and grown to 50% confluency in 100 μL of RPMI-10 per well prior to the addition of either DMSO alone, or a test compound dissolved in DMSO to a concentration of 10 mg/mL. […]

P. falciparum 3D7 = assay: antiplasmodial activity, SYBR-Green method, P. falciparum 3D7 isolate; format: cell-based; settings: Plasmodium falciparum, in vitro, FIG. 4, read-out: IC50 anti-plasmodial activity
Protocol: as §1, §2

[1] = CHO cell toxicity assay (MTT); format: cell-based; settings: Chinese hamster, CHO cells; CHO cell line
Protocol: CHO cells (ATCC, Manassas, Va.) were grown in RPMI-1640 supplemented with 10% fetal calf serum (Sigma, St. Louis, Mo.), 25 mM HEPES and gentimicin (RPMI-10). Cells were seeded in 96 well plates and grown to 50% confluency in 100 μL of RPMI-10 per well prior to the addition of either DMSO alone, or a test compound dissolved in DMSO to a concentration of 10 mg/mL. Compound gradients were prepared by adding 90 μL of RPMI-10 mixed with 10 μL of compound solution to the first well in the series, mixing, transferring 100 μL to next well and repeating until the next-to-last well was reached. After 48 hrs, the viability of the cells was determined by discarding the media in the wells and adding 100 μL of 10 mg/mL of 3-[4,5-dimethylthiazol-2-yl]-2,5-diphenyltetrazolium bromide (MTT, Sigma, St. Louis, Mo.) in RPMI-10, incubating the plates for an additional hour, and then removing the media and adding 100 μL of DMSO and reading the absorbance at 650 nm.^xlix The IC50 values of individual compounds were determined applying a non-linear regression analysis of the dose-response curve using the computer program SigmaPlot (Jandel Scientific).

[2] = toxicity to Vero cell line; format: cell-based; settings: African green monkey, Vero cells
[3] = toxicity to human fibroblast (HFF) cell line; format: cell-based; settings: human fibroblast (HFF) cells
[4] = tested on: human primary blood cells (PBLs); assay: human primary blood cell assay (H-3 incorporation, Con A stimulated); format: cell-based
Protocol: The following procedure was used to conduct human primary blood cell assays. Added 3 ml of PBS (OCI media facility) to 3 ml of serum depleted blood from normal, adult, human controls. Pipetted 6 ml Ficoll-Paque Plus (Amersham 17-1440-03) into a 15 ml centrifuge tube. Overlaid with PBS diluted blood. Centrifuged at 2500 rpm for 10 minutes at room temperature, no brake.
Removed and discarded upper (PBS) phase. Transferred cells at the PBS/Ficoll interface to a clean 15 ml centrifuge tube. Added 10 mL PBS. Then, centrifuged at 1250 rpm for 10 minutes at room temperature.
Discarded the supernatant and resuspended the cell pellet in Iscove's Modified Dulbecco's Medium (Gibco 12440 prepared by OCI Media facility) supplemented with 5.5×10^-5M 2ME (Fisher 03446-100) and 5% FBS (Hyclone SH-30397-03 Lot # KPG21604). Plated cells at 50,000 cells per well in 96 well flat bottom plates (Costar 3595). Added Concanavalin A (Pharmacia 17-0450-01) to a final concentration of 1.5 micro gm/ml. All conditions were set in triplicate.
Included untreated (Con A alone) controls. Cultured cells for 48 hours or 72 hours at 37° C. with 5% CO2 and 90% relative humidity. Added 0.5 uCi H-3 (Perkin Elmer NET027A) per well in 10 microL for the last 8 hours of the culture period. […]
Dried plates for 1 hour at 37° C. […] Data was collected by reading the radioactivity counts.

P. burghei [5] = assay: mouse efficacy study against plasmodia; format: in vivo, mice
Excerpt: P. chabaudi chabaudi (Pcc) AS infection: They are two different species of mouse malaria that are used commonly in mice efficacy studies: P. chabaudi chabaudi AS and P. burghei. Pcc strain induces larger load of parasites and even some mouse strains die. If P. burghei strain is given to the mouse, they develop fewer parasites but become very sick. Pcc strain provides an opportunity in mice to observe if parasite numbers are reduced in the context of a reasonably healthy animal. Thus, Pcc strain was used in the efficacy model.
Blood-stage PCCAS was maintained in as described (Podoba J E and Stevenson, 1991)[2]. Infections in experimental animals were initiated by intraperitoneal injection of 1×10^6 P. chabaudi chabaudi AS-infected erythrocytes (PCCAS). Course of infection was monitored daily for 18 days by determining parasitemia on thin-blood smears stained with Diff Quik (American Scientific Products, Mississauga, ON). Compounds to be assayed were made up in RPMI 1640 at the concentration required to deliver the target dose in a total volume of 0.5 mL and were then filter sterilized. Compounds were stored at 4° C. prior to use. After infection the presence of parasites in the peripheral circulation was monitored daily until parasites were first observed. The mice were then injected daily for three consecutive days with either RPMI 1640 alone or compound dissolved in RPMI. The health of the animals was assessed daily and the parasitemia determined by examining blood films.
(§3) Efficacy studies in mice were performed using Ii to test the in vivo potential of this compound. Mice were infected with P. burghei, a mouse strain similar to the human malaria parasite P. falciparum. P. burghei strain is approximately 20 times less sensitive to Ii, so the dose in mice had to be adjusted accordingly. Parasitemia was monitored in mice after the drug was given at two different doses: 0.6 mg/mouse (n=3) and 6 mg/mouse (n=3). There was a control group of mice without any treatment with Ii.

ODCase = ODCase inhibition (isothermal titration calorimetry enzymology); format: biochemical
Protocol: (a) Enzymology. ODCase from M. thermoautotrophicum (Mt) and compound Id were incubated at room temperature in the reaction buffer (50 mM Tris, 20 mM DTT, 40 mM NaCl, pH 7.5). The concentrations of the Id were 1×, 2.5×, 3.5× and 5× of the enzyme concentration, corresponding to 50, 125, 175 and 250 μM, respectively. The remaining enzyme activity in the enzyme-inhibitor reaction mixture was measured after 30 min, 2, 4, 8, 12, 24, 48 and 96 hours after the onset of incubation. Aliquots (1 μL) were removed from the reaction mixture and diluted to 2.5 mL with the assay buffer (50 mM Tris, 1 mM DTT, pH 7.5). […]
The inhibition of ODCase from P. falciparum (Pf) was assayed in a similar manner. […] The remaining activity of ODCase was measured at 37° C. for up to 48 hrs. […]
The Pf ODCase concentration in each of the samples (15, 30, and 45 min incubation times) was 60 nM. […] The remaining enzyme activities in these samples were measured by injecting 3 μL of 2.85 mM OMP. The enzyme activity at t=0 was measured by injecting OMP and 6-iodo-UMP simultaneously into the 60 nM enzyme solution in the ITC sample chamber. […] The control sample with 60 nM enzyme was incubated for 15-45 minutes at 37° C., and the enzyme activity was measured after the addition of 3 μL of 2.85 mM OMP. […]
Half-time of inactivation t1/2 was calculated from: t1/2=0.693/kinact (3)

P. burghei [6] = assay: sensitivity of P. burghei strain compared with P. falciparum; settings: P. burghei strain vs P. falciparum
Protocol: as §3

[7] = range stated for the group of compounds

Compound | IC50 (Plasmodium falciparum; [7]) [µM] | IC50 (Plasmodium vivax) [µM] | further results
N#Cc1cc(=O)[nH]c(=O)n1[C@@H]1O[C@H](COP(=O)(O)O)[C@@H](O)[C@H]1O [Ib, 6-Cyanouridine-5′-monophosphate] |  | 20 to 2000 | IC50 (Plasmodium falciparum): 20 to 2000 µM
Nc1cc(=O)[nH]c(=O)n1[C@@H]1O[C@H](COP(=O)(O)O)[C@@H](O)[C@H]1O [Ie, 6-Amino uridine-5′-O-monophosphate] | 20 to 2000 | 20 to 2000 | 
[N-]=[N+]=Nc1cc(=O)[nH]c(=O)n1[C@@H]1O[C@H](COP(=O)(O)O)[C@@H](O)[C@H]1O [If, 6-Azido uridine-5′-O-monophosphate] | 20 to 2000 | 20 to 2000 | 
O=c1cc(I)n([C@@H]2O[C@H](CO)[C@@H](O)[C@H]2O)c(=O)[nH]1 [Ii, 6-Iodo-uridine] |  |  | IC50 (P. falciparum ItG): 4.4 ± 1.3 µM; IC50 (P. falciparum 3D7): 6.2 ± 0.7 µM; IC50 at 48 h [1]: 366 ± 45 µM; CC50 [2]: > 300 µM; IC50 [3]: > 300 µM; toxicity not observed up to [4]: > 200 mM; parasitemia in mice (P. burghei [5]; mice infected with P. burghei, 0.6 and 6 mg/mouse, vs untreated controls, dose-dependent, FIG. 5): decreased parasitemia; survival rate (P. burghei [5]; mice infected with P. burghei, treated vs controls, FIG. 6): longer survival time; survival, multiple dosing, higher doses (P. burghei [5]; mouse efficacy study with multiple dosing, vs no drug, FIG. 7): increased survival; type of ODCase inhibition (ODCase): covalent inhibitor; times less sensitive than P. falciparum (P. burghei [6]): approximately 20 times
Nc1c(F)c(=O)[nH]c(=O)n1[C@@H]1O[C@H](CO)[C@@H](O)[C@H]1O [In, 5-Fluoro-6-amino uridine] | 20 to 2000 | 20 to 2000 | 
[N-]=[N+]=Nc1c(F)c(=O)[nH]c(=O)n1[C@@H]1O[C@H](CO)[C@@H](O)[C@H]1O [Io, 5-fluoro-6-azido uridine] | 20 to 2000 | 20 to 2000 | 
O=c1[nH]c(=O)n([C@@H]2O[C@H](CO)[C@@H](O)[C@H]2O)c(I)c1F [Ip, 5-fluoro-6-iodo uridine] | 20 to 2000 | 20 to 2000 | 

Second part, led by results:

IC50 (Plasmodium falciparum; [7]) [µM] | IC50 (Plasmodium vivax) [µM] | Compound | further results
20 to 2000 | 20 to 2000 | Nc1cc(=O)[nH]c(=O)n1[C@@H]1O[C@H](CO)[C@@H](O)[C@H]1O [Compound Ic, 6-Amino uridine] | 
20 to 2000 | 20 to 2000 | COC(=O)c1cc(=O)[nH]c(=O)n1[C@@H]1O[C@H](CO)[C@@H](O)[C@H]1O [Compound It, 6-Methoxycarbonyl uridine] | 
20 to 2000 | 20 to 2000 | N#Cc1cc(=O)[nH]c(=O)n1[C@@H]1O[C@H](CO)[C@@H](O)[C@H]1O [Ia, 6-Cyanouridine] | 
20 to 2000 | 20 to 2000 | [N-]=[N+]=Nc1cc(=O)[nH]c(=O)n1[C@@H]1O[C@H](CO)[C@@H](O)[C@H]1O [Id, 6-Azido uridine] | 
20 to 2000 | 20 to 2000 | O=c1cc(I)n([C@@H]2O[C@H](COP(=O)(O)O)[C@@H](O)[C@H]2O)c(=O)[nH]1 [Ij, 6-Iodo uridine-5′-O-monophosphate] | 
